According to PMC2841507 (Journal of medicinal chemistry, 2010):

How the values were obtained:
human DAT = human DAT (Homo sapiens, UniProt Q01959); assay: cell-based; type: cell-based
human NET = human NET (Homo sapiens, UniProt P23975); assay: cell-based; type: cell-based
human α3β4*-nAChR = human α3β4*-nAChR (Homo sapiens, UniProt P30926+P32297); assay: 86Rb+ efflux assay, SH-SY5Y cells; type: cell-based
human α4β2-nAChR = human α4β2-nAChR (Homo sapiens, UniProt P17787+P43681); assay: 86Rb+ efflux assay, SH-EP1-hα4β2 cells; type: cell-based
human α4β4-nAChR = human α4β4-nAChR (Homo sapiens, UniProt P30926+P43681); assay: 86Rb+ efflux assay, SH-EP1-hα4β4 cells; type: cell-based
[1] = biological target: human muscle-type α1β1γδ- (α1*-) nAChR (Homo sapiens, UniProt P02708+P07510+P11230+Q07001); assay: 86Rb+ efflux assay, TE671/RD cells; type: cell-based
[2] = tested on: nicotine-induced antinociception (tail-flick); assay: Blockade of nicotine-induced antinociception, tail-flick test; type: in vivo, mice; conditions: ratio of AD50 values, relative to 2a

| SMILES | IC50 (human DAT) [nM] | IC50 (human NET) [nM] | IC50 (human α3β4*-nAChR) [µM] | IC50 (human α4β2-nAChR) [µM] | times more potent than 2a in blocking nicotine-induced antinociception in the tail-flick test [2] | further results |
| --- | --- | --- | --- | --- | --- | --- |
| CC(C(=O)c1cccc(F)c1)N1CCCC1 (stereo not drawn) [Compound 2aa, 2-(N-Pyrrolidinyl)-3’-fluoropropiophenone] | 156 ± 46 | 135 ± 36 | 35 | 71 |  | fold more potent than 2a in inhibition of DA uptake (human DAT): 4 fold; fold more potent than 2a in inhibition of NE uptake (human NET): 14 fold |
| CC(C(=O)c1cccc(Br)c1)N1CCCC1 (stereo not drawn) [Compound 2bb, 2-(N-Pyrrolidinyl)-3’-bromopropiophenone] | 750 ± 173 | 1180 ± 270 | 11 | 74 |  | IC50 (human α4β4-nAChR): 64 µM; IC50 [1]: 19 µM |
| CC(NC(C)(C)C)C(=O)c1cccc(Br)c1 (stereo not drawn) [Compound 2c] |  |  |  |  | ~ 10 fold |  |
| Cc1cccc(C(=O)C(C)N2CCCC2)c1 (stereo not drawn) [Compound 2cc, 2-(N-Pyrrolidinyl)-3’-methylpropiophenone] | 414 ± 89 | 577 ± 61 | 11 | 56 |  | IC50 [1]: 53 µM |
| Cc1cccc(C(=O)C(C)NC(C)(C)C)c1 (stereo not drawn) [Compound 2d] |  |  |  |  | 24 fold |  |
| COc1cccc(C(=O)C(C)N2CCCC2)c1 (stereo not drawn) [Compound 2dd, 2-(N-Pyrrolidinyl)-3’-methoxypropiophenone] | 452 ± 82 | 718 ± 130 | 16 | 57 |  | IC50 [1]: 87 µM |
| CC(C(=O)c1cccc([N+](=O)[O-])c1)N1CCCC1 (stereo not drawn) [Compound 2ee, 2-(N-Pyrrolidinyl)-3’-nitropropiophenone] | 10000 ± 1900 | 4100 ± 540 | 53 |  |  |  |
| CC(C(=O)c1cccc(Cl)c1)N1CCCCC1 (stereo not drawn) [Compound 2ff] |  |  |  |  | 24 fold |  |
| CC(NC(C)(C)C)C(=O)c1ccc(Br)cc1 (stereo not drawn) [Compound 2h] |  |  |  |  | ~ 10 fold |  |
| Cc1ccc(C(=O)C(C)NC(C)(C)C)cc1 (stereo not drawn) [Compound 2i] |  |  |  |  | ~ 10 fold |  |
| CC(NC(C)(C)C)C(=O)c1ccc(F)c(F)c1 (stereo not drawn) [Compound 2j] |  |  |  |  | 24 fold |  |
| CC(NC(C)(C)C)C(=O)c1cc(Cl)cc(Cl)c1 (stereo not drawn) [Compound 2n] |  |  |  |  | 43 fold |  |
| CCC(NC(C)(C)C)C(=O)c1ccc(Cl)c(Cl)c1 (stereo not drawn) [Compound 2w] |  |  |  |  | 24 fold |  |
